In general, IC50 refers to the concentration needed to halve the response being measured.

One series has as its system MDA-MB-231 cells. The series can be described thus: MTT cytotoxicity assay in MDA-MB-231 triple-negative breast cancer cells. It counts as cell-based. Particulars: Homo sapiens, MDA-MB-231, 48 h exposure, ± SEM, read-out: IC50 (cytotoxic activity). As for the experimental part:
(§1) The colorectal cancer cell line HCT 116 (ATCC CCL-247) was grown in Roswell Park Memorial Institute 1640 Medium (RPMI, Biochrom Ltd., Cambridge, UK), and the breast cancer cell line MDA-MB-231 (ATCC HTB-26, American Type Culture Collection, Manassas, VA, USA) was maintained in Dulbecco’s Modified Eagle Medium (DMEM, Biochrom Ltd., Cambridge, UK) supplemented with 10% (v/v) fetal bovine serum (FBS, Biochrom Ltd., Cambridge, UK) and 1% (v/v) penicillin-streptomycin (p/s, Biochrom) on tissue-culture-treated flasks. The human fibroblast BJ-5ta cell line (ATCC CRL-2522) was grown in a 4:1 proportion of DMEM:Medium 199 (PAN-Biotech GmbH, Aidenbach, Germany), supplemented with 10% (v/v) FBS, 1% (v/v) p/s, and 0.01% (v/v) hygromycin B (Sigma-Aldrich, St. Louis, MO, USA). All cell lines were authenticated and tested for mycoplasma contamination. Cells were incubated at 37 °C with 5% CO2 and 95% relative humidity. […] Cell counts were determined using a hemocytometer. […]
(§2) After the incubation period, the culture media was discarded from each well, and 100 µL (0.5 mg/mL) was added. […] Cell viability was determined based on the absorbance measured at 570 nm using a microplate reader (Cytation 3, BioTek Instruments, Winooski, VT, USA). The absorbance of untreated cells or DMSO-treated cells was considered at 100% cell viability. […]

The test system of the next series is HCT 116 cells. The series can be described thus: MTT cytotoxicity assay in HCT 116 colorectal cancer cells. Particulars: Homo sapiens, HCT 116, 48 h exposure, ± SEM, read-out: IC50 (cytotoxic activity). It is filed as cell-based. The procedure: as §1, §2
A general note: Formazan colour is commonly taken as a measure of viable cells.

For a further series, the system named is COR-L23 cells. Further details: method as in PMID 21366300. Particulars: COR-L23 lung cancer cells; read-out: IC50 nucleoside-nucleobase transport inhibition; cited from earlier work.
A further series can be described thus: Aqueous solubility. It counts as physicochemical.
In the next series the test system is EGFR. Details: method as in PMID 22753156, PMID 15199094. Particulars: cited from earlier work.

Regarding `O=c1[nH]cc(F)c(=O)[nH]1` [5-FU, 5-Fluorouracil], the IC50 in the series with MDA-MB-231 cells amounted to 183000 ± 17100 nM; in the series on HCT 116 cells, 10400 ± 680 nM. On to `COc1ccc(CCc2nc(NCC(C)O)nc3c(NCc4ccc(OC)c(OC)c4)nc(CCC(C)OC(=O)Nc4ccccc4)nc23)cc1OC` (stereo not drawn) [IV], for which, in the series with COR-L23 cells, the concentration for half-maximal inhibition (IC50) is 8 nM. `O=C(NNc1ncnc2c(Nc3ccc(OC(F)(F)F)cc3)ncnc12)c1ccccc1` [PP, N’-(8-((4-(Trifluoromethoxy)phenyl)amino)pyrimido[5,4-d]pyrimidin-4-yl)benzohydrazide]: the “Solubility in aqueous medium” value in the series “Aqueous solubility” is “poor solubility in aqueous medium”. Besides, the IC50 with MDA-MB-231 cells was 5240 ± 240 nM; in the series on HCT 116 cells, 2040 ± 450 nM. With `COc1ccc(NC(=O)OC(C)CCc2nc(NCc3ccc(OC)c(OC)c3)c3nc(NCC(C)OC(=O)CCC(=O)O)nc(CCc4ccc(OC)c(OC)c4)c3n2)cc1` (stereo not drawn) [VI], the half-inhibitory concentration (IC50) with COR-L23 cells was 7 nM. Regarding `COc1ccc(NC(=O)OC(C)CCc2nc(NCc3ccc(OC)c(OC)c3)c3nc(NCC(C)O)nc(CCc4ccc(OC)c(OC)c4)c3n2)cc1` (stereo not drawn) [V], the half-maximal inhibitory concentration (IC50) in the series with COR-L23 cells was 4 nM. As for `CCN(CC)CC1CCN(c2ncc3ncnc(Nc4ccc(F)c(Cl)c4)c3n2)CC1` [compound III], the “Activity as EGFR tyrosine kinase inhibitors” value in the series on EGFR is “nanomolar range”.

(Values after article PMC12389155 (Pharmaceuticals, 2025).)
